According to PubChem BioAssay (NCI):
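In this assay, cells in 96-well plates receive the compound at five concentrations for 48 hours. Endpoints are linearly interpolated between the surrounding concentrations. Definition used: TGI = concentration required for complete inhibition of growth.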

How the values were obtained:
Assay in all cases: NCI tumour cell line growth inhibition, 48 h
TK-10 renal = test system: TK-10 renal
OVCAR-3 ovarian = test system: OVCAR-3 ovarian
U251 CNS = test system: U251 CNS
OVCAR-8 ovarian = test system: OVCAR-8 ovarian
A498 renal = test system: A498 renal
EKVX NSCLC = test system: EKVX NSCLC
SW-620 colon = test system: SW-620 colon
SK-MEL-28 melanoma = test system: SK-MEL-28 melanoma
NCI/ADR-RES ovarian = test system: NCI/ADR-RES ovarian
SK-MEL-2 melanoma = test system: SK-MEL-2 melanoma
UACC-62 melanoma = test system: UACC-62 melanoma
ACHN renal = test system: ACHN renal
KM12 colon = test system: KM12 colon
HS 578T breast = test system: HS 578T breast
786-0 renal = test system: 786-0 renal
A549 NSCLC = test system: A549 NSCLC
SNB-75 CNS = test system: SNB-75 CNS
LOX IMVI melanoma = test system: LOX IMVI melanoma
M14 melanoma = test system: M14 melanoma
MCF7 breast = test system: MCF7 breast
SK-OV-3 ovarian = test system: SK-OV-3 ovarian
IGROV1 ovarian = test system: IGROV1 ovarian
K-562 leukemia = test system: K-562 leukemia
NCI-H23 lung = test system: NCI-H23 lung
SN12C renal = test system: SN12C renal
PC-3 prostate = test system: PC-3 prostate
UO-31 renal = test system: UO-31 renal
SK-MEL-5 melanoma = test system: SK-MEL-5 melanoma
UACC-257 melanoma = test system: UACC-257 melanoma
HOP-62 NSCLC = test system: HOP-62 NSCLC
MDA-MB-231 breast = test system: MDA-MB-231 breast
NCI-H226 lung = test system: NCI-H226 lung
COLO 205 colon = test system: COLO 205 colon
OVCAR-4 ovarian = test system: OVCAR-4 ovarian
SF-539 CNS = test system: SF-539 CNS
OVCAR-5 ovarian = test system: OVCAR-5 ovarian
CAKI-1 renal = test system: CAKI-1 renal
HCT-116 colon = test system: HCT-116 colon
HCC-2998 colon = test system: HCC-2998 colon
SF-295 CNS = test system: SF-295 CNS
HOP-92 NSCLC = test system: HOP-92 NSCLC
HT29 colon = test system: HT29 colon
RXF 393 renal = test system: RXF 393 renal
NCI-H460 lung = test system: NCI-H460 lung
MALME-3M melanoma = test system: MALME-3M melanoma
SNB-19 CNS = test system: SNB-19 CNS
HCT-15 colon = test system: HCT-15 colon
BT-549 breast = test system: BT-549 breast
MDA-N = test system: MDA-N
DU-145 prostate = test system: DU-145 prostate
RPMI-8226 leukemia = test system: RPMI-8226 leukemia
SF-268 CNS = test system: SF-268 CNS
MDA-MB-435 = test system: MDA-MB-435
MOLT-4 leukemia = test system: MOLT-4 leukemia
CCRF-CEM leukemia = test system: CCRF-CEM leukemia
SR leukemia = test system: SR leukemia
T-47D breast = test system: T-47D breast
HL-60(TB) leukemia = test system: HL-60(TB) leukemia
NCI-H522 lung = test system: NCI-H522 lung

For `COC(=O)[C@@H]1[C@H](O)CCC2=C(CC(=O)c3ccoc3)[C@H](C)CC[C@]21C`, the TGI (TK-10 renal) was > 50 µM, the TGI (OVCAR-3 ovarian) was > 50 µM and the TGI (U251 CNS) was > 50 µM. For the same molecule, the TGI (OVCAR-8 ovarian) was > 50 µM, the TGI (A498 renal) was > 50 µM and the TGI (EKVX NSCLC) was > 50 µM. For the same molecule, the TGI (SW-620 colon) was > 50 µM, the TGI (SK-MEL-28 melanoma) was > 50 µM and the TGI (NCI/ADR-RES ovarian) was > 50 µM. For the same molecule, the TGI (SK-MEL-2 melanoma) was > 50 µM, the TGI (UACC-62 melanoma) was > 50 µM and the TGI (ACHN renal) was > 50 µM. For the same molecule, the TGI (KM12 colon) was > 50 µM, the TGI (HS 578T breast) was > 50 µM and the TGI (786-0 renal) was > 50 µM. The TGI (A549 NSCLC) was > 50 µM, the TGI (SNB-75 CNS) was > 50 µM and the TGI (LOX IMVI melanoma) was > 50 µM. The TGI (M14 melanoma) was > 50 µM, the TGI (MCF7 breast) was > 50 µM and the TGI (SK-OV-3 ovarian) was > 50 µM. For the same molecule, the TGI (IGROV1 ovarian) was > 50 µM, the TGI (K-562 leukemia) was > 50 µM and the TGI (NCI-H23 lung) was > 50 µM. For the same molecule, the TGI (SN12C renal) was > 50 µM, the TGI (PC-3 prostate) was > 50 µM and the TGI (UO-31 renal) was > 50 µM. The TGI (SK-MEL-5 melanoma) was > 50 µM, the TGI (UACC-257 melanoma) was > 50 µM and the TGI (HOP-62 NSCLC) was > 50 µM. For the same molecule, the TGI (MDA-MB-231 breast) was > 50 µM, the TGI (NCI-H226 lung) was > 50 µM and the TGI (COLO 205 colon) was > 50 µM. For the same molecule, the TGI (OVCAR-4 ovarian) was > 50 µM, the TGI (SF-539 CNS) was > 50 µM and the TGI (OVCAR-5 ovarian) was > 50 µM. For the same molecule, the TGI (CAKI-1 renal) was > 50 µM, the TGI (HCT-116 colon) was > 50 µM and the TGI (HCC-2998 colon) was > 50 µM. For the same molecule, the TGI (SF-295 CNS) was > 50 µM, the TGI (HOP-92 NSCLC) was > 50 µM and the TGI (HT29 colon) was > 50 µM. For the same molecule, the TGI (RXF 393 renal) was > 50 µM, the TGI (NCI-H460 lung) was > 50 µM and the TGI (MALME-3M melanoma) was > 50 µM. For the same molecule, the TGI (SNB-19 CNS) was > 50 µM, the TGI (HCT-15 colon) was > 50 µM and the TGI (BT-549 breast) was > 50 µM. For the same molecule, the TGI (MDA-N) was > 50 µM.
`O=c1c(Nc2ccccc2)cn(CCOc2ccc(Cl)cc2)c(=O)n1CCOc1ccc(Cl)cc1` was tested, and the TGI (DU-145 prostate) was > 100 µM, the TGI (U251 CNS) was > 100 µM and the TGI (A498 renal) was > 100 µM. For the same molecule, the TGI (RPMI-8226 leukemia) was > 100 µM, the TGI (EKVX NSCLC) was > 100 µM and the TGI (SW-620 colon) was > 100 µM. The TGI (SK-MEL-28 melanoma) was > 100 µM, the TGI (UACC-62 melanoma) was > 100 µM and the TGI (ACHN renal) was > 100 µM. The TGI (KM12 colon) was > 100 µM, the TGI (HS 578T breast) was > 100 µM and the TGI (786-0 renal) was > 100 µM. For the same molecule, the TGI (SF-268 CNS) was > 100 µM, the TGI (A549 NSCLC) was > 100 µM and the TGI (MDA-MB-435) was > 100 µM. The TGI (LOX IMVI melanoma) was > 100 µM, the TGI (M14 melanoma) was > 100 µM and the TGI (MOLT-4 leukemia) was > 100 µM. For the same molecule, the TGI (IGROV1 ovarian) was > 100 µM, the TGI (K-562 leukemia) was > 100 µM and the TGI (NCI-H23 lung) was > 100 µM. For the same molecule, the TGI (SN12C renal) was > 100 µM, the TGI (PC-3 prostate) was > 100 µM and the TGI (UO-31 renal) was > 100 µM. The TGI (SK-MEL-5 melanoma) was > 100 µM, the TGI (UACC-257 melanoma) was > 100 µM and the TGI (COLO 205 colon) was > 100 µM. The TGI (OVCAR-4 ovarian) was > 100 µM, the TGI (CAKI-1 renal) was > 100 µM and the TGI (HCT-116 colon) was > 100 µM. For the same molecule, the TGI (HCC-2998 colon) was > 100 µM, the TGI (SF-295 CNS) was > 100 µM and the TGI (CCRF-CEM leukemia) was > 100 µM. For the same molecule, the TGI (RXF 393 renal) was > 100 µM, the TGI (NCI-H460 lung) was > 100 µM and the TGI (SNB-19 CNS) was > 100 µM. The TGI (HCT-15 colon) was > 100 µM, the TGI (MDA-N) was > 100 µM and the TGI (SR leukemia) was > 100 µM.
`CCNC(=O)NNc1ncnc2c1c(-c1ccc(Cl)cc1)cn2-c1ccc(C)cc1` showed a TGI (TK-10 renal) of 81 µM, a TGI (DU-145 prostate) of 44.9 µM and a TGI (OVCAR-3 ovarian) of 33.6 µM. The TGI (U251 CNS) was 31.3 µM, the TGI (OVCAR-8 ovarian) was 28.8 µM and the TGI (T-47D breast) was 49.6 µM. It also gave a TGI (HL-60(TB) leukemia) of 34.7 µM, a TGI (A498 renal) of 30.6 µM and a TGI (EKVX NSCLC) of 65.4 µM. For the same molecule, the TGI (SW-620 colon) was 45 µM, the TGI (SK-MEL-28 melanoma) was 33.3 µM and the TGI (NCI/ADR-RES ovarian) was 38.4 µM. It also gave a TGI (SK-MEL-2 melanoma) of 42.2 µM, a TGI (UACC-62 melanoma) of 33.3 µM and a TGI (ACHN renal) of 41.9 µM. For the same molecule, the TGI (KM12 colon) was 35 µM, the TGI (786-0 renal) was 32.8 µM and the TGI (SF-268 CNS) was 39 µM. For the same molecule, the TGI (A549 NSCLC) was 37.2 µM, the TGI (SNB-75 CNS) was 38.9 µM and the TGI (MDA-MB-435) was 30.7 µM. For the same molecule, the TGI (LOX IMVI melanoma) was 36.4 µM, the TGI (M14 melanoma) was 32.3 µM and the TGI (MOLT-4 leukemia) was 45.4 µM. It also gave a TGI (SK-OV-3 ovarian) of 73.7 µM, a TGI (IGROV1 ovarian) of 37.7 µM and a TGI (K-562 leukemia) of 46.5 µM. The TGI (NCI-H23 lung) was 44.8 µM, the TGI (SN12C renal) was 30.3 µM and the TGI (PC-3 prostate) was 38.6 µM. The TGI (UO-31 renal) was 28.3 µM, the TGI (SK-MEL-5 melanoma) was 28 µM and the TGI (UACC-257 melanoma) was 35.7 µM. It also gave a TGI (HOP-62 NSCLC) of 35.2 µM, a TGI (MDA-MB-231 breast) of 34.8 µM and a TGI (NCI-H226 lung) of 37.9 µM. The TGI (COLO 205 colon) was 29.9 µM, the TGI (OVCAR-4 ovarian) was 40.8 µM and the TGI (SF-539 CNS) was 33.2 µM. For the same molecule, the TGI (OVCAR-5 ovarian) was 33.5 µM, the TGI (CAKI-1 renal) was 51.1 µM and the TGI (HCT-116 colon) was 28.1 µM. For the same molecule, the TGI (NCI-H522 lung) was 38.3 µM, the TGI (HCC-2998 colon) was 31.3 µM and the TGI (SF-295 CNS) was 30.5 µM. For the same molecule, the TGI (HOP-92 NSCLC) was 34 µM, the TGI (HT29 colon) was 34 µM and the TGI (CCRF-CEM leukemia) was 43.1 µM. It also gave a TGI (RXF 393 renal) of 33.1 µM, a TGI (NCI-H460 lung) of 48.5 µM and a TGI (MALME-3M melanoma) of 35.5 µM. It also gave a TGI (SNB-19 CNS) of 34.5 µM, a TGI (HCT-15 colon) of 47.8 µM and a TGI (MDA-N) of 36.8 µM. It also gave a TGI (SR leukemia) of 43.3 µM.
